Columns and labels:
Conditions in all cases: banded MIC grade
Aspergillus fumigatus = assay: Minimum inhibitory concentration, YAG medium; assay type: cell-based
Experimental: (§1) Between 1 and 5 mgs of compound were accurately weighed out into a sterile Eppendorf tube. The compound was dissolved in DMSO to give a solution containing 5 mg/mL. Tubes were stored at −20° C. until required.
(§2) On the day of testing thawed solutions were vortex mixed to ensure homogeneity. 30 μL of solution was removed and added to 570 μL of sterile water in a separate sterile Eppendorf. The thoroughly mixed solution was used to prepare a series of doubling dilutions in water, in a deep well plate. Thirteen replicate plates were prepared using a Minitrak by aspirating 20 μL from each well into eleven clear polystyrene 96 well plates.
(§3) Spores of Aspergillus spp. (Aspergillus fumigatus [two strains], Aspergillus terreus [two strains], Aspergillus niger and Aspergillus flavus) were harvested from cultures grown on Sabarauds agar for 5 days, and resuspended in PBS/Tween 80 to approx 1×10^7 cfu/mL. Each organism suspension was diluted in YAG medium (1% glucose, 1% ammonium chloride and 0.5% yeast extract) to 0.5-2×10^4cfu/mL. 80 μL of an organism suspension was added to each well of the plate containing drug dilutions.
(§4) This typically produced MIC plates with a drug range 50-0.05 mg/L and organism inocula of 1-2×10^4 cfu/mL for Aspergillus spp. All plates were incubated for 24 hrs at 35° C. Growth was assessed by monitoring the optical density at 485 nm for each well. The MIC of a compound is the lowest drug concentration that inhibits growth of an organism by >70% compared with a drug free control. MICs are recorded as mg/L. In cases where the MIC of an organism is […] the MIC is repeated using a concentration range of 0.5-0.0005 mg/L.

A. fumigatus 210 = assay: Minimum inhibitory concentration, YAG medium; assay type: cell-based, Aspergillus fumigatus
Experimental: as §1, §2, §3, §4

A. terreus 49 = assay: Minimum inhibitory concentration, YAG medium; assay type: cell-based, Aspergillus terreus
Experimental: (§5) The compound was dissolved in DMSO to give a solution containing 5 mg/mL. Tubes were stored at −20° C. until required. On the day of testing thawed solutions were vortex mixed to ensure homogeneity. 30 μL of solution was removed and added to 570 μL of sterile water in a separate sterile Eppendorf. The thoroughly mixed solution was used to prepare a series of doubling dilutions in water, in a deep well plate. Thirteen replicate plates were prepared using a Minitrak by aspirating 20 μL from each well into eleven clear polystyrene 96 well plates. Spores of Aspergillus spp. […] All plates were incubated for 24 hrs at 35° C. Growth was assessed by monitoring the optical density at 485 nm for each well. […] MICs are recorded as mg/L.

Aspergillus flavus = assay: Minimum inhibitory concentration, YAG medium; assay type: cell-based
Experimental: as §5

Aspergillus niger = assay: Minimum inhibitory concentration, YAG medium; assay type: cell-based
Experimental: as §5

Aspergillus terreus = assay: Minimum inhibitory concentration, YAG medium; assay type: cell-based
Experimental: as §5

C. albicans = assay: Minimum inhibitory concentration, RPMI medium; assay type: cell-based
Experimental: as §5, with “Assays were also performed in RPMI medium (Roswell Park Memorial Media 1640). To perform MIC tests in this medium, dilutions” for “Spores”, “compounds are prepared in microtitre plates as described above.” for “Aspergillus spp.”, “24-48” for “24”, “The following organisms were tested: […]” for “MICs are recorded as mg/L.”

C. parapsilosis = assay: Minimum inhibitory concentration, RPMI medium; assay type: cell-based
Experimental: as §5, with “Assays were also performed in RPMI medium (Roswell Park Memorial Media 1640). To perform MIC tests in this medium, dilutions” for “Spores”, “compounds are prepared in microtitre plates as described above.” for “Aspergillus spp.”, “24-48” for “24”, “The following organisms were tested: […]” for “MICs are recorded as mg/L.”

C. tropicalis = assay: Minimum inhibitory concentration, RPMI medium; assay type: cell-based
Experimental: as §5, with “Assays were also performed in RPMI medium (Roswell Park Memorial Media 1640). To perform MIC tests in this medium, dilutions” for “Spores”, “compounds are prepared in microtitre plates as described above.” for “Aspergillus spp.”, “24-48” for “24”, “The following organisms were tested: […]” for “MICs are recorded as mg/L.”

SMILES | MIC grade, A. FUMIGATUS, YAG media (Aspergillus fumigatus) | MIC grade, A. FUMIGATUS 210, YAG media (A. fumigatus 210) | MIC grade, A. TERREUS 49, YAG media (A. terreus 49) | MIC grade, A. FLAVUS, YAG media (Aspergillus flavus) | MIC grade, A. NIGER, YAG media (Aspergillus niger) | MIC grade, A. TERREUS, YAG media (Aspergillus terreus) | MIC grade, C. ALBICANS, RPMI media (C. albicans) | MIC grade, C. PARAPSILOSIS, RPMI media (C. parapsilosis) | MIC grade, C. TROPICALIS, RPMI media (C. tropicalis)
NC1=NN=C(CCCCOCc2ccccc2)CS1 | 4 (4: <0.2 mg/L) | 4 (4: <0.2 mg/L) | 4 (4: <0.2 mg/L) | 4 (4: <0.2 mg/L) | 4 (4: <0.2 mg/L) | 4 (4: <0.2 mg/L) | 4 (4: <1 mg/L) | 4 (4: <1 mg/L) | 4 (4: <1 mg/L)
CCCCc1ccc(OCCCCCC2=NN=C(N)SC2)cc1 | 1 (1: ≥5 mg/L) | 2 (2: 1-5 mg/L) | 2 (2: 1-5 mg/L) | 2 (2: 1-5 mg/L) | 3 (3: 0.2-1 mg/L) | 2 (2: 1-5 mg/L) | 2 (2: 5-20 mg/L) | 3 (3: 1-5 mg/L) | 2 (2: 5-20 mg/L)
NC1=NN=C(CCOc2ccccc2)CS1 | 4 (4: <0.2 mg/L) | 4 (4: <0.2 mg/L) | 3 (3: 0.2-1 mg/L) | 3 (3: 0.2-1 mg/L) | 3 (3: 0.2-1 mg/L) | 4 (4: <0.2 mg/L) | 3 (3: 1-5 mg/L) | 4 (4: <1 mg/L) | 2 (2: 5-20 mg/L)
NC1=NN=C(CCCCOc2ccccc2)CS1 | 3 (3: 0.2-1 mg/L) | 3 (3: 0.2-1 mg/L) | 4 (4: <0.2 mg/L) | 4 (4: <0.2 mg/L) | 4 (4: <0.2 mg/L) | 4 (4: <0.2 mg/L) | 4 (4: <1 mg/L) | 4 (4: <1 mg/L) | 3 (3: 1-5 mg/L)
CCCCOc1ccc(C2=NN=C(N)SC2)cc1 | 3 (3: 0.2-1 mg/L) | 3 (3: 0.2-1 mg/L) | 1 (1: ≥5 mg/L) | 3 (3: 0.2-1 mg/L) | 3 (3: 0.2-1 mg/L) | 3 (3: 0.2-1 mg/L) | 1 (1: ≥20 mg/L) | 1 (1: ≥20 mg/L) | 1 (1: ≥20 mg/L)
